Reference: patent US20100062961A1, “Good Foaming Creamy or Paste-Like Cleansers Comprising Floor Levels of Long Chain Lipids or Lipid Mimics” (CONOPCO, INC., D/B/A UNILEVER, priority 2008, published 2010)

Experiments:
[1] = Solubility of lipid in 5% surfactant solution, Method B absorbance at 500 nm; type: physicochemical; details: 5% Miracare SLB, pH 6.0, Method B
Description: Stock solutions of lipid in 5% surfactant solution were mixed in a beaker with an overhead mixer at a temperature above the melting point of the lipid for about an hour. The surfactant solution pH was adjusted to the desired range (usually 6 to 6.6) prior to addition of the lipid. Generally, the lipid concentrations in the stock solutions were at 1% to 2% by weight of solution. The stock solutions were allowed to cool to room temperature. These stock solutions were well above the solubility limit of the lipid as evidenced by considerable cloudiness. The stock solution was gently stirred to achieve a uniform suspension of the lipid insoluble matter, and then added to several small vials (approximately 20 ml capacity) in predetermined amounts. […] In some cases, we have determined solubility by analyzing a dilution series of samples using a UV-Vis 96 spectrophotometer (Spectra Max, Model 340pc). The samples of the dilution series were pipeted into a well plate reader and inserted into the spectrophotometer, which measured absorbance at a wavelength of 500 nm. The solubility limit was determined by extrapolating the absorbance readings to the baseline.

[2] = Solubility of lipid in 5% surfactant solution, Method A visual observation; type: physicochemical
Description: (room temperature). The solubility is a function of pH, and increases with increasing pH, but the long chain fatty acids and other lipids (e.g., cholesterol and related sterols and ceramides) and lipid mimics (e.g., saturated long chain alcohols) still have limited solubility in the surfactant solutions, especially in the pH range of interest, pH less than or equal to 8. Solubility can be determined by visual observation of a series of solutions that were allowed to equilibrate at room temperature for approximately 48 hours. We also determined solubility by absorbance of light at a particular wavelength, where we have used a UV-Vis 96 spectrophotometer well plate reader (Spectra Max, 340 pc Model) with the wavelength set at 500 nm. […] The surfactant solution pH was adjusted to the desired range (usually 6 to 6.6) prior to addition of the lipid. […] In some cases, we have determined solubility by analyzing a dilution series of samples using a UV-Vis 96 spectrophotometer (Spectra Max, Model 340pc). The samples of the dilution series were pipeted into a well plate reader and inserted into the spectrophotometer, which measured absorbance at a wavelength of 500 nm. The solubility limit was determined by extrapolating the absorbance readings to the baseline. These values are reported in Table 2 as determined by Method B.

[3] = typical anionic surfactant; cited from earlier work
[4] = Krafft point: lowest temperature at which cloudiness is observed in a 1% by weight surfactant solution; type: physicochemical; details: 1% by weight solution; upper bound, solution observed clear at stated temperature
Description: The Krafft temperature is the minimum temperature at which surfactants form micelles. […] Below the Krafft temperature, there is no value for the critical micelle concentration (CMC), i.e., surfactant micelles will not form. A portion of the surfactant exists as a precipitate and the mixture of surfactant and water will appear cloudy or have an obvious phase settled at the bottom of a sample below the Krafft temperature. We consider only surfactants or mixtures of surfactants with Krafft temperatures at or below 20° C., so it suffices to verify that the surfactant mixtures of interest are completely soluble at 20° C. We verified this for the commercial surfactant solutions of interest. In particular, we have verified that the Krafft temperature for mixtures of sodium lauryl-1-ether sulfate and cocoamidopropyl betaine, and for mixtures of the commercial blend known as Miracare SLB lies below 20° C.
Our operational definition of Krafft point here is the lowest temperature at which cloudiness is observed in a 1% by weight solution of surfactant. The table indicates the upper bound on Krafft point, i.e., solution observed to be clear at stated temperature.

CC(C)CCC[C@@H](C)[C@H]1CC[C@H]2[C@@H]3CC=C4C[C@@H](O)CC[C@]4(C)[C@H]3CC[C@]12C [Cholesterol]
Solubility Limit [1]: ~5 × 10^−3 weight fraction of total solution

CCCCCCCCCCCC(=O)O [Lauric acid]
solubility ([2]; in 5 wt. % SLES1EO/CAPBet solution): approximately 0.08 wt. % | solubility as share of the surfactant weight ([2]; in a 5 wt. % surfactant solution): approximately 16%

CCCCCCCCCCCCOS(=O)(=O)[O-].[Na+] [sodium dodecyl sulfate]
Krafft temperature [3]: 18.4 °C

Sodium tridecethsulfate [Trideceth Sulfate (TDS)]
Krafft T [4]: <15 °C
